Experimental data as given in patent US20100034772A1, “COMPOSITIONS AND METHODS FOR IMMUNOTHERAPY” (priority 2006, published 2010).
“Also recorded” adds a separate entry of the source.

Key:
[1] = system: Ge-con and Ge-Hsp70 melanoma cells; experiment: 51Chromium release assay: lysis of SAHA-treated Ge-con and Ge-Hsp70 cells by LAK cells; assay type: cell-based, human; conditions: target cells 10 μM SAHA 20 h; LAK: PBMC 4 days IL-2 100 U/ml; n=4; p=0.0030, three-way ANOVA; FIG. 9B
Description: (§1) The human melanoma cell line Ge, the Ge-Hsp70 and Ge-con sublines derived therefrom (clones Ge-Hsp70-A, Ge-Hsp70-C, Ge-TCR-C, and Ge-GFP-B) (15), mouse fibroblast L cells, and transfected L cells were maintained in NaHCO3-buffered DMEM supplemented with 10% FCS (Biochrom, Berlin, Germany), 2 mM L-glutamine, 1 mM sodium pyruvate, 50 μM 2-mercaptoethanol and antibiotics (100 U/ml penicillin, 100 μg/ml streptomycin) (Sigma) in Petri dishes for tissue culture (Sarstedt, Nümbrecht, Germany) at 37° C. in a 10% CO2 atmosphere. Human erythroleukemia K562 and mouse lymphoma YAC-1 cells were maintained under the same conditions in Petri dishes for suspension cells (Sarstedt). […] MICA mRNA expression was analyzed by Northern blot and cell surface expression by flow cytometry. […]
(§2) Target cells were labeled by incubating 1×10^6 cells in 200 μl HEPES-buffered DMEM containing 100 μl FCS and 50 μCi Na2^51CrO4 (ICN Biomedicals, Eschwege, Germany) for 1 h at 37° C. and washed three times with HEPES-buffered DMEM. […] Spontaneous release was determined by incubation of target cells in the absence of effector cells. […]

[2] = system: Ge-con and Ge-Hsp70 melanoma cells; experiment: Flow cytometry of cell surface MICA/B, NKG2D ligands and HSP70 on Ge melanoma cells after histone deacetylase inhibitor; assay type: cell-based, human; conditions: FIG. 9A; for HSP70 cell surface expression on Ge cells after histone deacetylase inhibitor treatment: SAHA 10 μM, 20 h, mAb RPN 1197; for MICA/B cell surface expression on Ge-con and Ge-Hsp70 cells: histone deacetylase inhibitor treatment (SAHA 10 μM, 20 h)
Description: (§3) The human melanoma cell line Ge, the Ge-Hsp70 and Ge-con sublines derived therefrom (clones Ge-Hsp70-A, Ge-Hsp70-C, Ge-TCR-C, and Ge-GFP-B) (15), mouse fibroblast L cells, and transfected L cells were maintained in NaHCO3-buffered DMEM supplemented with 10% FCS (Biochrom, Berlin, Germany), 2 mM L-glutamine, 1 mM sodium pyruvate, 50 μM 2-mercaptoethanol and antibiotics (100 U/ml penicillin, 100 μg/ml streptomycin) (Sigma) in Petri dishes for tissue culture (Sarstedt, Nümbrecht, Germany) at 37° C. in a 10% CO2 atmosphere. Human erythroleukemia K562 and mouse lymphoma YAC-1 cells were maintained under the same conditions in Petri dishes for suspension cells (Sarstedt). […] L cells were co-transfected by electroporation with 30 μg of the cosmid A158 (25) containing the MIC3 gene of the rhesus macaque (Macaca mulatta) which is orthologous to human MICA, and with 1 μg of the dsRED vector (Clontech, Mountain View, USA), which confers resistance to geneticin (Invitrogen, Karlsruhe, Germany). After selection with geniticin (1 mg/ml) stable clones were established by limiting dilution, tested for presence of the cosmid by PCR using specific primers (5′-GCT TGC ATT CCC TCC AGG A-3′ (SEQ ID NO: 1) and 5′-TGGACCCTCTGCAGCTGATGT-3′ (SEQ ID NO: 2), length of specific PCR product 1396 bp). MICA mRNA expression was analyzed by Northern blot and cell surface expression by flow cytometry. Four independent clones were tested as target cells for human and rhesus lymphokine-activated killer (LAK) cells with similar results, confirming that MICA expression confers susceptibility to LAK cells. Clone K43 (L-MICA) was selected for the further studies.
Flow cytometry was done on a FACScan flow cytometer (Becton Dickinson, Heidelberg, Germany) using CellQuest software. Expression of intracellular HSP70, T cell receptor (TCR) β, and green fluorescent protein (GFP) in Ge-Hsp70 and Ge-con clones, respectively, was controlled regularly by flow cytometry as described before (15). Cell surface expression of HSP70 was examined on propidium iodide negative cells by a monoclonal antibody (mAb) (RPN 1197, mouse IgG1, multimmune, Regensburg, Germany) that has been reported to detect HSP70 on the plasma membrane (28). MICA/B cell surface expression was determined with the mAb BAMO1 reacting with human MICA and MICB (mouse IgG1, Immatics, Tübingen, Germany). […] Intracellular granzyme B expression was analyzed with the mAb B18.1 (mouse IgG1, Alexis Biochemicals, Grünberg, Germany) after permeabilization of the cells with 0.25% saponin as described before for HSP70 (15). […] The percentage of NK cells in the spleens of SCID mice was determined using the pan-NK cell marker DX5 (rat IgM, PE-conjugated, Caltag Laboratories, Hamburg, Germany). […]

[3] = system: NK cells / Ge-con target cells; experiment: 51Chromium release assay: lysis of Ge-con melanoma target cells by isolated NK cells; assay type: cell-based, human
Description: Human effector cells were obtained from the peripheral blood of healthy voluntary laboratory co-workers by density gradient centrifugation on Biocoll separating solution (Biochrom). NK cells were isolated from peripheral blood mononuclear cells (PBMC) by magnetic cell sorting (MACS) using a negative selection kit (NK cell isolation Kit II, 130-091-152; Miltenyi Biotec, Bergisch-Gladbach, Germany). The kit contains a cocktail of antibodies against CD3, CD4, CD14, CD15, CD19, CD36, CD123, and CD235a. […] NK cells enriched by MACS were cultured in 24-well plates for tissue culture (Sarstedt) at a density of 2×10^6 cells/ml. To some cultures 2 μg/ml recombinant HSP70, recombinant HSC70, or the HSP70-derived peptide TKD (Bachem, Bubendorf, Switzerland) were added.
Target cells were labeled by incubating 1×10^6 cells in 200 μl HEPES-buffered DMEM containing 100 μl FCS and 50 μCi Na2^51CrO4 (ICN Biomedicals, Eschwege, Germany) for 1 h at 37° C. and washed three times with HEPES-buffered DMEM. […] Spontaneous release was determined by incubation of target cells in the absence of effector cells. The micro titer plates were centrifuged for 5 min at 40×g and incubated at 37° C. for 4 h before being centrifuged again and supernatant and sediment were separately taken to determine radioactivity in each well using a Wallac MicroBeta Trilux counter (PerkinElmer Life Sciences, Köln, Germany).

PBMC = experiment: 51Chromium release assay: lysis of L-MICA / L / K562 target cells by human PBMC or LAK cells stimulated in vitro; assay type: cell-based; conditions: for lysis of L-MICA cells by IL-2 treated PBMC, additional stimulatory effect of recombinant protein: PBMC cultured 7 days with IL-2 (100 U/ml) plus 2 μg/ml protein, compared with IL-2 only, FIG. 7A
Description: as §3
(§4) Splenocytes from SCID mice were obtained using a Tenbroeck homogeniser and erythrocytes were removed by incubation for 5 min in lysis buffer (155 mM NH4Cl, 10 mM KHCO3, 0.1 mM EDTA, pH 7.4-7.8). Afterwards the cells were used either directly as cytotoxic effector cells or cultured for 24 h in DMEM with 10% FCS and 20% supematant from concanavalin A stimulated lymphocytes before being used in ^51Chromium release assays. Human effector cells were obtained from the peripheral blood of healthy voluntary laboratory co-workers by density gradient centrifugation on Biocoll separating solution (Biochrom). NK cells were isolated from peripheral blood mononuclear cells (PBMC) by magnetic cell sorting (MACS) using a negative selection kit (NK cell isolation Kit II, 130-091-152; Miltenyi Biotec, Bergisch-Gladbach, Germany). […]
as §2

NK cells [4] = experiment: 51Chromium release assay: lysis of L-MICA target cells by MACS-isolated NK cells or NK cell depleted PBMC; assay type: cell-based, human
Description: as §1, §2

NK cells [5] = conditions: shown before (27); cited from earlier work
NK cells [6] = experiment: Flow cytometry of NK cell markers and intracellular granzyme B after 5 d culture; assay type: cell-based, human; conditions: IL-2 100 U/ml, TKD 2 μg/ml
Description: as §4, with “Germany). The kit contains a cocktail of antibodies against CD3, CD4, CD14, CD15, CD19, CD36, CD123, and CD235a. To obtain LAK cells the PBMC were cultured for 4 to 7 days in 5-ml Petri dishes for tissue culture (Sarstedt) at a density of 5 to 10×10^6 cells/ml in DMEM supplemented with 100 U/ml IL-2 (Proleukin, Chiron, Amsterdam, Netherlands). NK cells enriched by MACS were cultured in 24-well plates for tissue culture (Sarstedt) at a density of 2×10^6 cells/ml. To some cultures 2 μg/ml recombinant HSP70, recombinant HSC70, or the HSP70-derived peptide TKD (Bachem, Bubendorf, Switzerland) were added.” for “Germany).”
Flow cytometry was done on a FACScan flow cytometer (Becton Dickinson, Heidelberg, Germany) using CellQuest software. […] MICA/B cell surface expression was determined with the mAb BAMO1 reacting with human MICA and MICB (mouse IgG1, Immatics, Tübingen, Germany). […] Intracellular granzyme B expression was analyzed with the mAb B18.1 (mouse IgG1, Alexis Biochemicals, Grünberg, Germany) after permeabilization of the cells with 0.25% saponin as described before for HSP70 (15). […] The percentage of NK cells in the spleens of SCID mice was determined using the pan-NK cell marker DX5 (rat IgM, PE-conjugated, Caltag Laboratories, Hamburg, Germany). […]

In the case of `O=C(CCCCCCC(=O)Nc1ccccc1)NO` [SAHA, suberoylanilide hydroxyamic acid], the “susceptibility of treated Ge-con and Ge-Hsp70 cells to lysis by LAK cells versus untreated cells” value [1] is reported as “significantly more susceptible to lysis by LAK cells than untreated cells; also recorded: lysed signifcantly better than untreated cells”, the “HSP70 cell surface expression on Ge cells after histone deacetylase inhibitor treatment” value [2] is reported as “not found” and the “MICA/B cell surface expression on Ge-con and Ge-Hsp70 cells” value [2] is reported as “induced”. For the same compound, the “susceptibility of Ge target cells to NK cells after SAHA treatment” value ([3]; target cells 10 μM SAHA 20 h, p<0.0001, three-way ANOVA, effector:target 2.5:1 and 1.25:1) was “augmented their susceptibility to NK cells”.
With “HSP70: His-tagged recombinant stress-inducible HSP70 protein derived from the rat Hsp70-1 gene, produced in E. coli” the “capacity of LAK cells to kill L-MICA cells” value (PBMC; 7 days IL-2 (100 U/ml) plus HSP70 (2 μg/ml), tested in parallel with LPS (10 ng/ml), 6 experiments, p=0.0374, FIG. 7B) was “significantly increased” and the “lysis of L-MICA cells by IL-2 treated PBMC, additional stimulatory effect of recombinant protein” value (PBMC) was “further increased lysis of the L-MICA cells”.
With “HSC70: His-tagged recombinant constitutively expressed HSC70 from the rat Hsc70 gene, produced in E. coli” the “lysis of L-MICA cells by IL-2 treated PBMC, additional stimulatory effect of recombinant protein” value (PBMC) was “but not HSC70 was able to further activate PBMC to kill MICA expressing target cells”.
With `CC(/C=C/C(=O)NO)=C\[C@@H](C)C(=O)c1ccc(N(C)C)cc1` [trichostatin A] the “HSP70 cell surface expression on Ge cells after histone deacetylase inhibitor treatment” value [2] was “not found” and the “MICA/B cell surface expression on Ge-con and Ge-Hsp70 cells” value [2] was “induced”.
For TKDNNLLGRFELSG, the “lysis of L-MICA cells by PBMC stimulated with IL-2 and TKD versus IL-2 only” value (PBMC; 7 days, IL-2 100 U/ml, TKD 2 μg/ml, p=0.0012, FIG. 7C) was “lysed L-MICA cells significantly better”, the “killing of L-MICA cells by stimulated NK cell depleted PBMC” value (NK cells [4]; NK cell depleted PBMC, 5 days IL-2 (100 U/ml) or IL-2 plus TKD (2 μg/ml), effector:target ratios up to 200:1, FIG. 8B) was “did not result in a cell population that was able to kill L-MICA cells” and the “activity of the NK cells against L-MICA cells” value (NK cells [4]; NK cell enriched fraction, 5 days IL-2 (100 U/ml) plus TKD (2 μg/ml) versus IL-2, 7 experiments, p<0.0001, FIG. 8C) was “significantly improve”. The “ability to stimulate NK cells to lyse HSP70 cell surface positive target cells” value (NK cells [5]) was “equivalent to the full length HSP70”, the “capability of NK cells to lyse Ge-con target cells after stimulation” value ([3]; NK cells 5 days IL-2 (100 U/ml) plus TKD (2 μg/ml) versus IL-2, TKD p=0.0055, three-way ANOVA, effector:target 2.5:1 and 1.25:1) was “increased their capability to lyse target cells” and the “killing of Ge-con target cells: combination of TKD treatment of NK cells and SAHA treatment of target cells” value ([3]; TKD 2 μg/ml plus IL-2 5 days, SAHA 10 μM 20 h, interaction p=0.0003, especially at lower effector:target ratios, FIG. 10B) was “acted synergistically”. For the same compound, the “mean fluorescence intensity of NKG2D and CD94, IL-2 and TKD versus IL-2 alone” value (NK cells [6]) was “no significant difference was detectable”, the “intracellular granzyme B expression, IL-2 plus TKD versus IL-2 alone” value (NK cells [6]; 5 experiments, FIG. 10D) was “tendency towards increased expression” and the “percentage of CD56 positive NK cells, IL-2 plus TKD versus IL-2” value (NK cells [6]; FIG. 10C) was “no difference was observed”.
